Measurements as given in patent publication US20240059703A1 (AMGEN INC., priority 2021, published 2024).

Tests used:
[1] = biological target: KRAS G12C (Homo sapiens (Human), UniProt P01116, C118A/G12C); test: 2 h coupled exchange assay; type: biochemical; conditions: Avg 2 h Coupled exchange IC50, 2 h compound pre-incubation, SOS-mediated nucleotide exchange
Protocol: The term “2 h coupled exchange assay” or “20 h coupled exchange assay” as used herein refers to the assay described in the Section entitled “BIOLOGICAL EVALUATION.”

[2] = test system: MIA PaCa-2 (human pancreatic carcinoma) cells; test: Cell Viability Assay (CellTiter-Glo), MIA PaCa-2; type: cell-based; conditions: Homo sapiens, MIA PaCa-2, 72 h
Protocol: Serially-diluted compound or DMSO was added to the cells, and plates were incubated at 37° C., 5% CO2 for 72 h. Cell viability was measured using a CellTiter-Glo® Luminescent Cell Viability Assay kit (Promega) according to the manufacturer's protocol. The luminescence signal of treated samples was normalized to DMSO control, and data were analyzed using a 4-parameter logistic model to calculate IC50 values.

[3] = test system: A549 (human lung carcinoma) cells; test: Cell Viability Assay (CellTiter-Glo), A549; type: cell-based; conditions: Homo sapiens, A549, 72 h
How it was run: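 Seeding at 1.67E+04 cells/mL is followed by overnight attachment at 37° C., 5% CO2. Serially diluted compound is added for 72 h. Viability is read by CellTiter-Glo luminescence, scaled to DMSO and fitted (4-parameter logistic) to give IC50.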

Sequence of KRAS G12C (P01116 other isoform, or with tags, fused parts or gaps G12C/C118A): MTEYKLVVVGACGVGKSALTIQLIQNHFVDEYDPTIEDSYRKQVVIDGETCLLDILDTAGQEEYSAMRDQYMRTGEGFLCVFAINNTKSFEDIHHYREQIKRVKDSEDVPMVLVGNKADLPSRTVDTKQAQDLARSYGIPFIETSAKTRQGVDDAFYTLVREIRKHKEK

**Q.** What does the source list for `C=CC(=O)N1CC2(CCN(c3nc4c(c(-c5cc(O)ccc5F)c3C#N)CCCC4)C2)C1` [Example 2-9, 4-(2-fluoro-5-hydroxyphenyl)-2-(2-(2-propenoyl)-2,6-diazaspiro[3.4]octan-6-yl)-5,6,7,8-tetrahydro-3-quinolinecarbonitrile]?
**A.** IC50 [1]: 0.41 µM; IC50 [2]: 2.97 µM; IC50 [3]: 6.12 µM

**Q.** Which results are given for `C=CC(=O)N1CC2(CCN(c3nc4c(c(-c5c(C)ccc6[nH]ncc56)c3C#N)CCCCC4)C2)C1` [Example 2-10, 4-(5-methyl-1H-indazol-4-yl)-2-(2-(2-propenoyl)-2,6-diazaspiro[3.4]octan-6-yl)-6,7,8,9-tetrahydro-5H-cyclohepta[b]pyridine-3-carbonitrile]?
**A.** IC50 [1]: 0.044 µM; IC50 [2]: 0.452 µM; IC50 [3]: > 5 µM

**Q.** How did the IC50 [1] turn out when `C=CC(=O)N1CC2(CCN(c3nc4c(c(-c5cccc6cc(O)ccc56)c3C)CCC(C)(C)C4)C2)C1` [Example 2-13, 1-(6-(4-(6-hydroxy-1-naphthalenyl)-3,7,7-trimethyl-5,6,7,8-tetrahydro-2-quinolinyl)-2,6-diazaspiro[3.4]octan-2-yl)-2-propen-1-one] was run?
**A.** 0.15 µM

**Q.** And the IC50 [2]?
**A.** 0.403 µM

**Q.** And the IC50 [3]?
**A.** > 5 µM

**Q.** For `C=CC(=O)N1CC2(CCN(c3nc4c(c(-c5c(C)ccc6cnn(C)c56)c3C)CCC(C)(C)C4)C2)C1` [Example 2-19, 1-(6-(4-(1,6-dimethyl-1H-indazol-7-yl)-3,7,7-trimethyl-5,6,7,8-tetrahydro-2-quinolinyl)-2,6-diazaspiro[3,4]octan-2-yl)-2-propen-1-one], which IC50 [1] is on record?
**A.** 0.104 µM

**Q.** What about the IC50 [2] of the same compound?
**A.** 0.392 µM

**Q.** What about the IC50 [3] of the same compound?
**A.** > 5 µM

**Q.** Which IC50 [1] does the source give for `C=CC(=O)N1CC2(CCN(c3nc4c(c(-c5cc(O)cc6ccccc56)c3C)CCC(C)(C)C4)C2)C1` [Example 2-27, 1-(6-(4-(3-hydroxy-1-naphthalenyl)-3,7,7-trimethyl-5,6,7,8-tetrahydro-2-quinolinyl)-2,6-diazaspiro[3,4]octan-2-yl)-2-propen-1-one] here?
**A.** 0.102 µM

**Q.** What about the IC50 [2] of the same compound?
**A.** 0.214 µM

**Q.** And the IC50 [3]?
**A.** > 5 µM

**Q.** For `C=CC(=O)N1CC2(CCN(c3nc4c(c(-c5c(C)ccc6[nH]ncc56)c3C)CCC(C)(C)C4)C2)C1` [Example 2-28, 1-(6-(3,7,7-trimethyl-4-(5-methyl-1H-indazol-4-yl)-5,6,7,8-tetrahydro-2-quinolinyl)-2,6-diazaspiro[3.4]octan-2-yl)-2-propen-1-one], which IC50 [1] is on record?
**A.** 0.067 µM

**Q.** What about the IC50 [2] of the same compound?
**A.** 0.187 µM

**Q.** What about the IC50 [3] of the same compound?
**A.** > 5 µM

**Q.** For `C=CC(=O)N1CC2(CCN(c3nc4c(c(-c5c(C(F)(F)F)ccc6[nH]ncc56)c3C#N)C[C@H]3C[C@@H]4C3(C)C)C2)C1` [Example 2-31, (1R,9R)-10,10-dimethyl-4-(2-(2-propenoyl)-2,6-diazaspiro[3.4]octan-6-yl)-6-(5-(trifluoromethyl)-1H-indazol-4-yl)-3-azatricyclo[7.1.1.0^2,7]undeca-2,4,6-triene-5-carbonitrile], which IC50 [1] is on record?
**A.** 0.053 µM

**Q.** And the IC50 [2]?
**A.** 0.054 µM

**Q.** And the IC50 [3]?
**A.** 2.78 µM

**Q.** Which IC50 [1] does the source give for `C=CC(=O)N1CC2(CCN(c3nc4c(c(-c5c(C)c(Cl)cc6[nH]ncc56)c3C)COC(C)(C)C4)C2)C1` [Example 2-36, 1-(6-(4-(6-chloro-5-methyl-1H-indazol-4-yl)-3,7,7-trimethyl-7,8-dihydro-5H-pyrano[4,3-b]pyridin-2-yl)-2,6-diazaspiro[3.4]octan-2-yl)-2-propen-1-one] here?
**A.** 0.02 µM

**Q.** What about the IC50 [2] of the same compound?
**A.** 0.013 µM

**Q.** What about the IC50 [3] of the same compound?
**A.** > 5 µM

**Q.** Which IC50 [1] does the source give for `C=CC(=O)N1CC2(CCN(c3nc4c(c(-c5cc(O)cc6ccccc56)c3C#N)C3CCC4C3)C2)C1` [Example 2-38, (1R,8S)-6-(3-hydroxy-1-naphthalenyl)-4-(2-(2-propenoyl)-2,6-diazaspiro[3.4]octan-6-yl)-3-azatricyclo[6.2.1.0^2,7]undeca-2,4,6-triene-5-carbonitrile|(1S, 8R)-6-(3-hydroxy-1-naphthalenyl)-4-(2-(2-propenoyl)-2,6-diazaspiro[3.4]octan-6-yl)-3-azatricyclo[6.2.1.0^2,7]undeca-2,4,6-triene-5-carbonitrile] here?
**A.** 0.067 µM

**Q.** What about the IC50 [2] of the same compound?
**A.** 0.157 µM

**Q.** And the IC50 [3]?
**A.** 3.42 µM
